Experimental data from patent publication US20130331326A1, “METHOD OF INDUCING HEMATOPOIETIC RECONSTRUCTION” (DUKE UNIVERSITY, priority 2011, published 2013).
“Also recorded” adds a separate entry of the source.

What was measured:
[1] = test system: BM HSC and progenitor cells; assay: Erlotinib pre-treatment of Tie2Cre;Bak1-/-;BaxFl/- mice, 300 cGy TBI, BM HSC and progenitor cell content; format: in vivo, mouse
Protocol: (§1) FIGS. 5A-5D. (FIG. 5A) Schematic diagram of irradiation and treatment of Tie2Cre;Bak1^−/−;Bax^Fl/− mice with erlotinib or water starting 3 days prior to TBI with evaluation of BM progenitor cell content and HSC repopulating capacity via competitive transplantation at +2 hours after TBI. […] A Student's 2-tailed t-test was used for all statistical analyses.
(§2) Competitive repopulation assays were also performed using donor C57B16 mice (CD45.2^+) that had been irradiated with 700 cGy TBI and gavaged daily with 10 μg/G erlotinib (Genentech, San Francisco, Calif.) or 150 μl water beginning on day 0 and continued through day +14. Donor BM cells were injected via tail vein into recipient B6.SJL mice (CD45.1^+) at a dose of 5×10^5 cells with a competing dose of host 1×10^5 BM MNCs. Tie2Cre;Bak1^−/−;Bax^FL/− mice were gavaged daily with 10 μg/G erlotinib or water starting day −3 and given 300 cGy TBI on day 0. Erlotinib administration continued until the timepoint of donor BM cell collection and analysis. Tie2Cre;Bak1^−/−;Bax^FL/− BM cells were injected via tail vein into recipient CD45.1^+ mice at a cell dose of 3×10^5 cells with a competing dose of host 1×10^5 CD45.1^+ cells. Multilineage hematopoietic reconstitution was measured in the PB of recipient mice by flow cytometry at 4, 8, and 12 weeks post-transplant. For survival studies with erlotinib administration, C57B16 mice were exposed to 700 cGy and then given 10 μg/G erlotinib or water starting day −3 and continuing daily through day +14.

EGFR = EGFR phosphorylation in BM KSL cells of erlotinib-treated Tie2Cre;Bak1-/-;BaxFl/- mice; format: in vivo, mouse; details: erlotinib-treated Tie2Cre;Bak1-/-;BaxFl/- mice vs water
Protocol: as §1

BM lin- cells = assay: Culture of BM lin- cells from VavCre;EGFRfl/fl or VavCre;EGFR+/+ mice with erlotinib; format: cell-based, mouse; details: TSF + 10 uM erlotinib, 72 hours
Protocol: Cell apoptosis and necrosis were analyzed by flow cytometry according to manufacturer's protocols with Annexin V-FITC and 7-AAD staining (BD, San Jose, Calif.). […] Cells were fixed and permeabilized with Fix Buffer I and Perm Buffer III (BD), and then stained with mouse anti-phospho-AKT-S473 PE (BD) or isotype control. Cell cycle analysis was performed by flow cytometric analysis modified from previous reports (Jordan et al, Exp. Hematol. 24:1347-1355 (1996), Chute et al, Hum. Gene Ther. 11:2515-2528 (2000), Sungartz et al, Blood 119:1308-1309 (2012)). Briefly, cells were fixed and permeabilized with 0.25% Saponin (Calbiochem, La Jolla, Calif.), 2.5% paraformaldehyde, 2% FBS in 1×PBS, and then labeled with Ki67-FITC and 7-AAD (BD). BM lin^− cells from VavCre;EGFR^+/+ or VavCre;EGER^fl/fl were cultured with TSF or TSF+10 μM erlotinib, or TSF following 300 cGy for 72 hours, and then collected for total cell counts and CFCs analysis.

[2] = test system: BM hematopoietic stem and progenitor cells; assay: Hematopoietic regeneration in C57B16 mice after 700 cGy TBI (progenitor assays, competitive repopulation); format: in vivo, mouse
Protocol: (§3) BM cells were collected into PBS (Cellgro, Manassas, Va.) with 10% fetal bovine serum (Hyclone, Logan, Utah) and 1% penicillin/streptomycin (GIBCO, Grand Island, N.Y.). Viable BM cells were quantified using Trypan Blue Stain (Lonza, Basel, Switzerland) to exclude apoptotic and dead cells. Cells were then incubated with anti-c-kit, anti-Sca-1, anti-lineage cocktail, anti-CD41, anti-CD48, and anti-CD150 antibodies (Biolegend and eBiosciences, San Diego, Calif.; BD, San Jose, Calif.) to measure ckit^+sca-1^+lin^− (KSL) progenitor cells or CD150′CD41^−CD48^−KSL (SLAM/KSL) as previously described (Kiel et al, Cell 121:1109-1121 (2005)). Colony forming cells (CFCs) and CFU-S12 assays were also performed to measure functional hematopoietic stem/progenitor cell content. For CFCs, either whole BM or cultured lineage−cells, or KSL cells were plated onto methylcellulose (StemCell Technologies, Vancouver, BC, Canada), and colonies were scored on day 14. 1×10^5 BM or 2×10^5 cells were collected from donor mice and injected via tail vein into recipient C57B16 mice that had been given 950 cGy TBI. At day +12 post-injection, spleens from recipient mice were harvested and stained with Bouin's fixative solution (Ricca Chemical Company, Arlington, Tex.), and colonies were counted as previously described (Till and MeRadiat. Res. 14:213-222 (1961)). Complete blood counts were performed on a HemaVet 950 (Drew Scientific, Dallas, Tex.).
as §2
Ten micrometer sections were cut using they CryoJane tape system (Instrumedics Inc, Hackensack, N.J., USA). Femurs were stained with hematoxylin and eosin or anti-mouse endothelial cell antibody (MECA-32) as previously described (Salter et al, Blood 113:2104-2107 (2009)) to assess BM cellularity and the BM vasculature after irradiation. Images were obtained using an Axiovert 200 microscope (Carl Zeiss Microscopy, Thornwood, N.Y.) or a Leica SP5 confocal microscope (Leica Microsystems Inc, Buffalo Grove, Ill.). Adobe Photoshop software (version 9.0.2, Adobe Systems, San JoSe, Calif.) was used to quantify positive signal as a measure of spatial distribution in the fields (Lehr et al, J. Histochem. Cytochem. 45:1559-1565 (1997), Lehr et al, J. Histochem. Cytochem. 47:119-126 (1999)).

C57B16 mice = assay: Survival of C57B16 mice after 700 cGy TBI; format: in vivo, mouse
BM KSL cells = assay: Culture of 300 cGy-irradiated BM KSL cells with BM ECs or TSF cytokines; CFC and CFU-S12 recovery; format: cell-based, mouse; details: screen of candidate proteins from cytokine array; data not shown
Protocol: as §3, with “Tex.). […]” for “Tex.).”

[3] = 700 cGy TBI, erlotinib 10 ug/G oral gavage daily through day +14, vs water

**Q.** How did the “engraftment of myeloid cells, B cells and T cells at 12 weeks post-transplant” value ([1]; BM from erlotinib-treated Tie2Cre;Bak1-/-;BaxFl/- mice vs irradiated control) turn out when `C#Cc1cccc(Nc2ncnc3cc(OCCOC)c(OCCOC)cc23)c1` [erlotinib] was run?
**A.** reduced engraftment

**Q.** What about the “BM KSL cells and CFU-S12 following TBI” value ([1]; erlotinib from 3 days prior to 300 cGy TBI, +2 hours after irradiation, vs water) of the same molecule?
**A.** decreased BM KSL cells and decreased BM CFU-S12 content; also recorded: significantly decreased

**Q.** What about the “decreased HSC content (4- to 12-week engraftment in competitively transplanted recipients)” value ([1]; erlotinib-treated, 300 cGy irradiated Tie2Cre;Bak1-/-;BaxFl/- donors vs water) of the same molecule?
**A.** more than 20 fold

**Q.** What about the “EGFR-phosphorylation in BM KSL cells” value (EGFR) of the same molecule?
**A.** decrease in EGFR-phosphorylation

**Q.** What about the “total cells and CFCs” value (BM lin- cells; EGFR+/+ BM lin- cells) of the same molecule?
**A.** decreased yield in total cells and CFCs; also recorded: significantly less total cells and CFCs

**Q.** What about the “total cell expansion or CFC production” value (BM lin- cells; EGFRfl/fl BM lin- cells, vs cytokines alone) of the same molecule?
**A.** no significant effect

**Q.** And the “HSC pool at day +14 post-TBI by competitive repopulation assay” value ([2]; 700 cGy TBI, erlotinib 10 ug/G oral gavage daily through day +14)?
**A.** essentially absent

**Q.** What about the “BM CFCs and CFU-S12 at day +14” value [2, 3] of the same molecule?
**A.** significantly reduced; also recorded: persistent, significant depletion

**Q.** What about the “BM cellularity at day +14” value [2, 3] of the same molecule?
**A.** persistent BM hypoplasia

**Q.** And the “BM HSCs and progenitor cells at day +7 post-TBI” value ([2]; 700 cGy TBI, erlotinib 10 ug/G oral gavage daily, same in control mice, data not shown)?
**A.** depletion of BM HSCs and progenitor cells

**Q.** What about the “short-term and longer-term HSCs (4 week through 12 week donor cell engraftment)” value ([2]; 700 cGy TBI, erlotinib-treated donors vs control) of the same molecule?
**A.** marked reduction

**Q.** And the “hematopoietic reconstitution following total body irradiation” value ([2]; Example 1, administration of erlotinib to mice)?
**A.** marked delay

**Q.** And the “mice that survived beyond day +27” value (C57B16 mice; 10 ug/G erlotinib oral gavage from 3 days prior to TBI for 14 days post-irradiation, water controls 53% at day +30)?
**A.** 0 of 15

**Q.** And the “mice that died by day +27” value (C57B16 mice; 10 ug/G erlotinib via gavage from 3 days prior to TBI until day +14)?
**A.** 15 of 15

B1: IL17f: candidate cytokine from BM serum array screened on irradiated BM KSL cells (protein, UniProt Q7TNI7 29-161, looked up)
Interleukin-17F: RKNPKAGVPALQKAGNCPPLEDNTVRVDIRIFNQNQGISVPREFQNRSSSPWDYNITRDPHRFPSEIAEAQCRHSGCINAQGQEDSTMNSVAIQQEILVLRREPQGCSNSFRLEKMLLKVGCTCVKPIVHQAA
**Q.** B1 was tested. Which “modulation of the activity of FL/- ECs or FL/+ ECs in promoting BM KSL cell recovery after irradiation” value (“modulation” below) (BM KSL cells) did it give?
**A.** none modulated the activity

**Q.** And the “recovery of BM KSL cells in vitro following irradiation” value (from here on “recovery of BM KSL cells”) (BM KSL cells)?
**A.** none of these proteins significantly altered the recovery

B2: IL17: candidate cytokine from BM serum array screened on irradiated BM KSL cells (protein, UniProt Q62386 26-158, looked up)
Interleukin-17A: AAIIPQSSACPNTEAKDFLQNVKVNLKVFNSLGAKVSSRRPSDYLNRSTSPWTLHRNEDPDRYPSVIWEAQCRHQRCVNAEGKLDHHMNSVLIQQEILVLKREPESCPFTFRVEKMLVGVGCTCVASIVRQAA
**Q.** With B2 as the molecule, how does the “modulation” value (BM KSL cells) read?
**A.** none modulated the activity

**Q.** What about the “recovery of BM KSL cells” value (BM KSL cells) of the same molecule?
**A.** none of these proteins significantly altered the recovery

B3: IL5: candidate cytokine from BM serum array screened on irradiated BM KSL cells (protein, UniProt P04401 21-133, looked up)
Interleukin-5: MEIPMSTVVKETLTQLSAHRALLTSNETMRLPVPTHKNHQLCIGEIFQGLDILKNQTVRGGTVEMLFQNLSLIKKYIDRQKEKCGEERRRTRQFLDYLQEFLGVMSTEWAMEG
**Q.** B3 was tested. Which “modulation” value (BM KSL cells) did it give?
**A.** none modulated the activity

**Q.** What about the “recovery of BM KSL cells” value (BM KSL cells) of the same molecule?
**A.** none of these proteins significantly altered the recovery

B4: KC: keratinocyte-derived chemokine, candidate protein screened on irradiated BM KSL cells (protein, UniProt P12850 25-96, looked up)
Growth-regulated alpha protein: APIANELRCQCLQTMAGIHLKNIQSLKVLPSGPHCTQTEVIATLKNGREACLDPEAPLVQKIVQKMLKGVPK
**Q.** Which results are given for B4?
**A.** modulation of the activity of FL/- ECs or FL/+ ECs in promoting BM KSL cell recovery after irradiation (BM KSL cells): none modulated the activity; recovery of BM KSL cells in vitro following irradiation (BM KSL cells): none of these proteins significantly altered the recovery
